According to patent publication US8324345B2, “HLA-binding peptide, precursor thereof, DNA fragment and recombinant vector encoding the same” (priority 2006, dated 2012):
No end group written: not given here.

Columns and labels:
[1] = target: HLA-A2 molecule (the product of HLA-A*0206 gene) (Homo sapiens, UniProt P04439, D140Y/D185E/D98H/E176V/E277Q/F33Y/G131W/G231S/I119V/I121R/I166T/I218V/L300P/L318F/N151K/N90K/P208A/P217A/Q86G/Q94H/R138H/R169H/T345S); assay: cell-based
Protocol: The peptides' binding affinity to an HLA-A2 molecule (the product of HLA-A*0206 gene) was measured by using RA2.6 cells (a newly prepared cell line at Kochi University) that express the HLA-A*0206 gene, which were created by expressing cDNA of the HLA-A*0206 gene in RAMS cells, the mouse TAP peptide transporter deficient cells.
First, the RA2.6 cells were cultured overnight at 26° C. to accumulate HLA-A0206 molecules that were unbound to peptides on the cell surface. A peptide serial dilution was added thereto for binding at room temperature for 30 minutes.
Subsequently, the mixture was cultured for 3.5 hours at 37° C. to denature the empty HLA-A0206 molecules that were unbound to peptides. As a result, the HLA-A0206 molecules lost their steric structure.
Either the fluorescent labeled monoclonal antibody 17A10 or 17A12, which specifically recognizes a peptide-bound HLA-A0206 molecule, was added thereto. The mixture was incubated on ice for 20 minutes, and the cells were stained.
Subsequently, the amount of fluorescence per cell was measured by using a flow cytometer. The dissociation constant, Kd value, was calculated by using the method published in the research article (Udaka et al., Immunogenetics, 51, 816-828, 2000).

[2] = target: HLA-A2 molecule (the product of HLA-A*0201 gene) (Homo sapiens, UniProt P04439, D140Y/D185E/D98H/E176V/E277Q/G131W/G231S/I119V/I121R/I166T/I218V/L300P/L318F/N151K/N90K/P208A/P217A/Q86G/Q94H/R138H/R169H/T345S); assay: Binding experiment of the peptides to an HLA-A0201 molecule (JY cells, flow cytometry)
Protocol: After neutralization, a reassemble experiment was performed.
The above JY cells and purified β 2 m were added to a serial dilution of the peptide whose binding affinity was to be measured. Then, the mixture was incubated on ice for 4 hours.

[3] = tested on: human HLA-A type molecule; assay: Binding experiments, summary statement for HLA-A type molecules; conditions: summary of the binding experiments
Protocol: The peptides' binding affinity to an HLA-A24 molecule (the product of HLA-A*2402 gene) was measured by using C1R-A24 cells that express the HLA-A*2402 gene (produced by and provided with permission of Professor Masafumi Takiguchi, Kumamoto University).

Row | Sequence | Kd [1] [nM] | Kd [2] [nM] | binding affinity to a human HLA-A type molecule (in words) [3]
1 | HVLGRLITV [compound 45] | 557 | – | –
2 | ELPETLETL [compound 40] | – | 474 | –
3 | IVLEHGSCV [compound 27] | – | 1830 | –
4 | SLRPQPTEL [compound 34] | – | 8910 | –
5 | ALVAFLRFL [SEQ ID NO 21] | 1080 | – | experimentally confirmed to have binding affinity
6 | FLIDGPETA [compound 35] | – | 883 | –
7 | LLFKTENGV [compound 28] | – | 33.5 | –
8 | LALLAAFKV [compound 43] | 341 | – | –
9 | ILIRTGLLV [compound 33] | – | 298 | –
10 | QILEENVEV [compound 50] | 2480 | – | –
11 | ALHQVFGAI [compound 38] | – | 170 | –
12 | FQPESPSKL [compound 36] | – | 487 | –
13 | IVLEHGSCV [compound 46] | 952 | – | –
14 | NLVRLQSGV [compound 30] | – | 20100 | –
15 | LVISGLFPV [compound 41] | 245 | – | –
16 | YVVIAILTV [compound 47] | 1380 | – | –
17 | YMPSVIEKM [compound 39] | – | 266 | –
18 | PLNEAIMAV [compound 29] | – | 320 | –
19 | SVIEKMEAL [compound 48] | 422 | – | –
